From the supplement of paper PMC10307832

How the values were obtained:
Assay in all cases: relative viability (nuclei count vs DMSO), 5 days (fraction); higher = more cells survive
Tivantinib + Pemetrexed = compound: O=C1NC(=O)[C@@H](c2cn3c4c(cccc24)CCC3)[C@@H]1c1c[nH]c2ccccc12 [Tivantinib] + Nc1nc2[nH]cc(CCc3ccc(C(=O)N[C@@H](CCC(=O)O)C(=O)O)cc3)c2c(=O)[nH]1 [Pemetrexed] (partner 0.2 µM)
Summary of the method: (§1)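 Each reported value is a median over duplicate plates. It expresses relative viability: treated-well nuclei count divided by vehicle-well nuclei count. Lung cancer cell lines in 1536-well plates were dosed by pin tool a day after seeding, alone with one drug or with a fixed anchor-drug dose plus five library-drug doses (not always all listed) in √10 steps, and nuclei were counted after 5 days.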

Tivantinib + Crizotinib = compound: O=C1NC(=O)[C@@H](c2cn3c4c(cccc24)CCC3)[C@@H]1c1c[nH]c2ccccc12 [Tivantinib] + C[C@@H](Oc1cc(-c2cnn(C3CCNCC3)c2)cnc1N)c1c(Cl)ccc(F)c1Cl [Crizotinib] (partner 1 µM)
Summary of the method: as §1

Crenolanib + Linsitinib = compound: CC1(COc2ccc3c(c2)ncn3-c2ccc3cccc(N4CCC(N)CC4)c3n2)COC1 [Crenolanib] + C[C@]1(O)C[C@@H](c2nc(-c3ccc4ccc(-c5ccccc5)nc4c3)c3c(N)nccn32)C1 [Linsitinib] (partner 1 µM)
Summary of the method: as §1

Tivantinib + Olaparib = compound: O=C1NC(=O)[C@@H](c2cn3c4c(cccc24)CCC3)[C@@H]1c1c[nH]c2ccccc12 [Tivantinib] + O=C(c1cc(Cc2n[nH]c(=O)c3ccccc23)ccc1F)N1CCN(C(=O)C2CC2)CC1 [Olaparib] (partner 8 µM)
Summary of the method: as §1

Cell Line	relative viability (Tivantinib + Pemetrexed; first compound 0.01 µM)	relative viability (Tivantinib + Pemetrexed; first compound 0.03162 µM)	relative viability (Tivantinib + Pemetrexed; first compound 0.1 µM)	relative viability (Tivantinib + Pemetrexed; first compound 0.3162 µM)	relative viability (Tivantinib + Crizotinib; first compound 0.01 µM)	relative viability (Tivantinib + Crizotinib; first compound 0.03162 µM)	relative viability (Tivantinib + Crizotinib; first compound 0.1 µM)	relative viability (Tivantinib + Crizotinib; first compound 0.3162 µM)	relative viability (Crenolanib + Linsitinib; first compound 0.01 µM)	relative viability (Crenolanib + Linsitinib; first compound 0.03162 µM)	relative viability (Crenolanib + Linsitinib; first compound 0.1 µM)	relative viability (Crenolanib + Linsitinib; first compound 0.3162 µM)	relative viability (Crenolanib + Linsitinib; first compound 1 µM)	relative viability (Tivantinib + Olaparib; first compound 0.01 µM)	relative viability (Tivantinib + Olaparib; first compound 0.03162 µM)	relative viability (Tivantinib + Olaparib; first compound 0.1 µM)	relative viability (Tivantinib + Olaparib; first compound 0.3162 µM)
LC-2-ad	0.3	0.252	0.276	0.259	0.515	0.411	0.501	0.411	0.834	0.887	0.797	0.844	0.873	0.684	0.685	0.692	0.706
NCI-H441	0.294	0.254	0.254	0.282	0.847	0.725	0.546	0.801	0.555	0.508	0.46	0.484	0.509	0.482	0.552	0.58	0.744
NCI-H322M	0.682	0.614	0.588	–	0.823	0.94	0.901	1.02	0.944	0.923	0.884	0.935	0.975	0.718	0.754	0.777	–
EPLC-272H	0.408	0.356	0.344	0.182	1.04	0.963	0.785	0.82	–	1.19	0.982	1.18	1.06	0.97	0.698	0.657	0.257
COR-L23	0.194	0.195	0.204	0.195	0.677	0.662	0.611	0.844	1.06	1.02	0.884	1.15	0.88	0.339	0.417	0.328	0.326
NCI-H2126	0.677	0.633	0.706	0.547	1.02	1.01	0.983	1.03	0.693	0.717	0.745	0.759	0.788	0.94	0.933	0.881	0.813
LCLC-103H	0.472	0.368	0.406	0.432	0.996	1.04	1.05	0.941	1.09	0.989	1.08	1.08	0.988	0.713	0.802	0.722	0.778
NCI-H1975	0.294	0.287	0.249	0.27	0.938	0.929	0.924	1.05	1.05	0.968	0.933	0.993	0.864	0.799	0.77	0.72	0.734
NCI-H1793	0.83	0.885	0.832	0.669	–	–	–	–	0.811	1.03	0.838	1.14	0.873	0.982	0.761	0.819	0.45
NCI-H2085	0.975	0.773	0.876	0.75	0.909	0.76	0.75	0.756	0.998	0.896	0.913	0.932	0.873	0.825	0.817	0.718	0.778
NCI-H1299	–	–	–	–	0.686	0.972	0.587	0.93	0.995	0.912	0.946	1.01	0.958	0.941	0.933	1.01	0.93
NCI-H1703	–	–	–	–	0.747	1.01	0.535	0.255	0.566	0.645	0.574	0.285	0.154	0.524	0.444	0.527	0.309
ChaGo-K-1	0.264	0.254	0.264	0.251	1.1	1.2	1.11	0.939	–	–	–	–	–	0.401	0.41	0.409	0.398
NCI-H522	1.01	1.02	0.997	0.476	–	–	–	–	–	–	–	–	–	0.639	0.579	0.698	0.517
NCI-H1648	–	0.67	0.722	0.486	–	–	–	–	–	–	–	–	–	–	0.889	0.611	0.528
NCI-H1563	0.558	0.703	0.715	0.624	0.851	0.893	0.822	0.884	1.12	1.3	1.18	1.23	1.06	–	–	–	–
NCI-H2342	0.761	0.849	0.771	0.681	–	–	–	–	–	–	–	–	–	0.513	0.423	0.392	0.282
SW 900	0.551	0.497	0.475	0.515	–	–	–	–	–	–	–	–	–	0.939	1.03	0.809	0.742
NCI-H1395	1.03	0.843	0.975	0.782	–	–	–	–	1.6	1.11	1	0.898	1.21	0.513	0.469	0.44	0.482
A549	–	–	–	–	0.894	0.81	0.713	0.638	0.674	0.598	0.529	0.69	0.533	0.204	0.253	0.301	0.214
NCI-H2170	0.288	0.285	0.244	–	1.31	1.13	1.04	–	–	–	–	–	–	0.558	0.658	0.507	–
NCI-H727	–	–	–	–	0.764	0.96	0.88	–	0.285	0.245	0.284	0.327	0.389	0.746	0.785	0.593	–
NCI-H1650	0.417	0.4	0.471	0.315	1.07	0.903	1.04	0.984	–	–	–	–	–	0.832	0.817	0.678	0.624
ABC-1	–	–	–	–	1.39	1.14	0.91	1.5	0.79	0.797	0.946	1.19	1.04	0.875	1.17	0.626	0.955
